In one assay the target is T1, TGR26 (Rattus norvegicus, UniProt Q56UD9).
T1 construct: treated with restriction enzymes ClaI and SpeI, and the insert encoding TGR26 was excised; expressed in transfected cells; host or cells: CHO dhfr- cells, plasmid pAK-rGPR7; membrane fraction
T1 sequence (Q56UD9 1-329): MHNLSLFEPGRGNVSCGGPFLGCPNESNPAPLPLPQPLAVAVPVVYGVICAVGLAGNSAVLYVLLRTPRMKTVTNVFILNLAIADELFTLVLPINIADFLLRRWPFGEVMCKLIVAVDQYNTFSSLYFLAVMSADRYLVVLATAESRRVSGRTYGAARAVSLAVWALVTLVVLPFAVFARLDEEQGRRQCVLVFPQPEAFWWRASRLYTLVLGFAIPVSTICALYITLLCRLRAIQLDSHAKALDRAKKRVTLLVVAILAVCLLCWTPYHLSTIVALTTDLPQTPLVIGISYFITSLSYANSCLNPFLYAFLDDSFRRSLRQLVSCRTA
The assay can be described thus: Receptor binding using [125I-Tyr10]-hGPR8L(1-23) and membrane fraction of TGR26 expressing CHO cells. The following applies: membrane fraction of TGR26 expressing CHO cells, 3 μg/ml. The procedure:
Using [^125I-Tyr^10]-hGPR8L(1-23) prepared by the method described in Reference Example 42 and a cell membrane fraction prepared from TGR26 expressing cells as described in Example 6, a receptor binding assay was carried out as follows.
Cell membrane fraction prepared from TGR26 expressing cells was diluted to various concentration with assay buffer (25 mM Tris-HCl, 5 mM EDTA, 0.05% CHAPS (3-[(3-Cholamidopropyl) Dimethyl-Ammonio]-1-Propanesulfonate), 0.1% BSA, 0.5 mM PMSF, 1 μg/ml Pepstatin, 20 μg/ml Leupeptin, 4 μg/ml E-64, pH7.4), and 200 μl each of the diluent was dispensed into polypropilene test tube (Falcon 2053). In order to determine an amount of maximum binding, 2 μl of DMSO and 2 μl of 7 nM [^125I-Tyr^10]-hGPR8L(1-23) were added to the membrane fraction solution. […] After filtration, a radioactivity remaining on the filter was counted using γ-counter, and an amount of specific binding was estimated by subtracting an amount of non-specific binding from an amount of maximum binding. […]
A receptor binding activity of human- and porcine-homologue derivatives of GPR8 ligand peptide obtained in the reference examples was measured using a membrane fraction of TGR26 expressing CHO cells and [^125I-Tyr^10]-hGPR8L(1-23) by the method described in Reference Example 73. […]

The next assay concerns the target T2, human GPR8 (Homo sapiens, UniProt P48146).
T2 construct: expressed in transfected cells; host or cells: CHO dhfr- cells, plasmid pAKKO-GPR8; membrane fraction
Nature of the assay: Receptor binding using [125I-Tyr10]-hGPR8L(1-23) and membrane fraction of GPR8 expressing CHO cells. As to conditions: membrane fraction of human GPR8 expressing cells.

No end group written: not given here. *: point of attachment. 125I = [125I]*

T2 sequence (P48146 whole entry): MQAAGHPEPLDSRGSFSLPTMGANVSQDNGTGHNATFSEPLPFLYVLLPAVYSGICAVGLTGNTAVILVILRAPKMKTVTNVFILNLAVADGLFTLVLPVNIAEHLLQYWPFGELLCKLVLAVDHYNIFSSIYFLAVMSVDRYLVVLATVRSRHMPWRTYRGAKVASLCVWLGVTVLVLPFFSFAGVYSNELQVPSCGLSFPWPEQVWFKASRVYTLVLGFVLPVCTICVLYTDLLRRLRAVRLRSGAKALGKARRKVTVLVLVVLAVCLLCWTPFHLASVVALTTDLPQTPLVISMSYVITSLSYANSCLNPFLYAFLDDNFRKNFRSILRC

A word on the IC50: it is the concentration that inhibits the measured activity by half. Lower therefore signals higher potency. Compound `CSCC[C@H](NC(=O)[C@H](CC(C)C)NC(=O)[C@H](CC(C)C)NC(=O)CNC(=O)[C@H](C)NC(=O)[C@H](C)NC(=O)[C@H](CCCNC(=N)N)NC(=O)CNC(=O)[C@@H](NC(=O)[C@@H](NC(=O)[C@H](Cc1c[nH]cn1)NC(=O)[C@H](Cc1ccc(O)cc1)NC(=O)[C@H](CCCNC(=N)N)NC(=O)[C@@H]1CCCN1C(=O)[C@H](CO)NC(=O)[C@H](C)NC(=O)[C@@H](NC(=O)[C@H](Cc1c[nH]cn1)NC(=O)[C@H](CCCCN)NC(=O)[C@H](Cc1ccc(O)cc1)NC(=O)[C@@H](N)Cc1c[nH]c2ccccc12)[C@@H](C)O)[C@@H](C)O)C(C)C)C(=O)NCC(=O)N[C@@H](CC(C)C)C(=O)O` [pGPR8L(1-23)] yielded a half-maximal inhibitory concentration (IC50) on TGR26 of 0.12 nM.

For “[^125I-Tyr^10]-hGPR8L(1-23): hGPR8L(1-23) iodinated with 125I at Tyr10 by the lactoperoxidase method; radioligand (WYKHVASPRY(125I)HTVGRAAGLLMGL)”, the “specific binding compared with [125I-Tyr2]-hGPR8L(1-23)” value with human GPR8 is listed as “twice as much”.
